Measurements taken from patent US20090311782A1, “METHOD FOR PROMOTING DIFFERENTIATION OF STEM CELL INTO INSULIN PRODUCING CELL” (TAIPEI VETERANS GENERAL HOSPITAL, priority 2008, published 2009).

Experiments:
Assay type in all cases: cell-based
[1] = test system: IPCs derived from human MSCs; assay: Insulin release by IPCs quantified by human insulin ELISA; settings: IBMX 100 μM, low glucose concentration (5 mM), 1 hour incubation in KRB buffer, FIG. 3B, p<0.05
Protocol: Insulin is an endocrine for reducing blood sugar, and normal islet cells are induced by glucose to release insulin. In order to quantify insulin release by IPCs, a human insulin ELISA (Enzyme-Link ImmunoSorbent Assay) is employed herein.
The suspension stage IV cells are rinsed twice in Phosphate Buffered Saline (PBS) and Krebs-Ringer bicarbonate (KRB) buffer (120 mM NaCl, 5 m M KCl, 2.5 m M CaCl2, 1.1 mM MgCl2, 25 mM NaHCO3 , 0.1 BSA) and preincubated for 1 hour with KRB buffer containing 5 mM glucose. The suspension stage IV cells are then incubated for 1 hour in fresh KRB buffer with 5 mM, 10 mM, 15 mM or 25 mM glucose, and the released insulin in the incubation medium is quantified by ELISA. The quantified insulin release results are shown in FIG. 3A, wherein undifferentiated MSCs are served as a control (*p<0.05 as compared with 5 mM; #p<0.05 as compared with 10 mM; student's t test). […] The insulin secreted by IPCs derived from human MSCs in the present invention is up to 1.1 ng/h/2.5×10^5 IPCs, which is even higher than those secreted by IPCs derived from rodent bone marrow stem cells in the prior art (referring to the citations 5-7). […]

[2] = test system: human MSCs; assay: Relative mRNA expression of insulin and Glut2 by RT-PCR and agarose electrophoresis, normalized by β-actin (FIG. 1); settings: end of four-stage culture
Description: Islet cells are aggregated cells, and the extracellular matrix (ECM) thereof includes fibronectin and laminin. The present invention provides a method for promoting MSCs to differentiate into IPCs by cell pellet suspension culture with additional fibronectin or laminin. The cells of the embodiments and the control groups at the end of the four-stage culture are harvested, and the relative mRNA expression levels of insulin and glucose transporter 2 (Glut2) thereof are detected by reverse-transcription polymerase chain reaction (RT-PCR) and agarose electrophoresis, and are normalized by the expression level of β-actin. In addition, it should be noted that all of the bar graphs shown in FIGS. 1-4 are represented by the measured mean with its standard deviation.

[3] = test system: human MSCs; assay: Dithizone (DTZ) staining for islet differentiation; settings: pellet suspension culture with versus without fibronectin, DTZ staining (not shown)
Description: Islet differentiation is further evaluated by dithizone (DTZ) staining to detect zinc ion, which binds six insulin molecules within the cells. Cells in the control groups I and II are not stained by DTZ; cells in the embodiment II are slightly stained by DTZ, and cells in the embodiment I are greatly stained by DTZ (not shown).

[4] = test system: human MSCs; assay: Insulin and Glut2 gene expression in stage IV cells by real-time RT-PCR, normalized by GAPDH (FIGS. 4A, 4B); settings: pellet suspension culture; for gene expressions of insulin and Glut2: 5 μg/mL ECM, compared with pellet culture without any ECM
Protocol: In order to further compare the different differentiation effects resulting from different ECMs when stem cells differentiate into IPCs in pellet suspension culture, the present invention performs the tests by adding fibronectin and laminin in combination or separately.
The gene expressions of insulin and Glut2 in stage IV cells of the present embodiments I-IV are analyzed by real-time RT-PCR respectively, and the detected results are further normalized by the expression level of glyceraldehyde-3-phosphate dehydrogenase (GAPDH) to measure the mRNA expression levels.

[5] = monolayer culture with 5 μg/mL fibronectin (control group I)
[6] = pellet suspension culture with 5 μg/mL fibronectin (embodiment I)

Compound	insulin release [1]	Glut2 expression [2, 5]	gene expression of insulin [2, 5]	Glut2 expression [2, 6]	gene expression of insulin [2, 6]	differentiation of MSCs into IPCs [3]	gene expressions of insulin and Glut2 [4]	gene expression level compared with fibronectin plus laminin [4]	insulin and Glut2 expressions compared with fibronectin only ([4]; compared with embodiment I (fibronectin only))
CC(C)Cn1c(=O)n(C)c(=O)c2[nH]cnc21 [IBMX, 3-isobutyl-1-methylxanthine]	stimulates insulin release								
fibronectin		moderately detected	not detected	markedly detected	obviously detected	can further enhance the differentiation of MSCs into IPCs	increased gene expressions of insulin and Glut2		
laminin							increased gene expressions of insulin and Glut2	significantly higher than that of the embodiment IV	higher than the embodiment I
